For orientation: IC50 means the concentration at which inhibition is half-maximal.

The results in this text go back to ChEMBL document CHEMBL5329200, “Structure-guided design and synthesis of ATP-competitive N-acyl-substituted sulfamide d-alanine-d-alanine ligase inhibitors” (Bioorg Med Chem, 2023).

Test [1] concerns Staphylococcus aureus. Nature of the test: Inhibition of C-terminal hexahistidine-tagged recombinant Staphylococcus aureus Ddl expressed in Escherichia coli BL21(DE3) assessed as remaining activity using D-Ala as substrate at 250 uM incubated for 5 mins in presence of ATP by antimony phosphomolybdate assay (reference value: 100+/-2%).
Test [2] is described as follows: Inhibition of C-terminal hexahistidine-tagged recombinant Staphylococcus aureus Ddl expressed in Escherichia coli BL21(DE3) using D-Ala as substrate in presence of ATP by PK/LDH couples assay.

With `Nc1ncnc2c1ncn2[C@@H]1O[C@H](CCNS(=O)(=O)NC(=O)OCCN2OC[C@@H](N)C2=O)[C@@H](O)[C@H]1O`, the Activity in test [1] amounted to 70%. Moreover, the 50% inhibitory concentration (IC50) in test [2] came out at 1700 µM. In the case of `COc1ccc(CCOC(=O)NS(=O)(=O)NCC[C@H]2O[C@@H](n3cnc4c(N)ncnc43)[C@H](O)[C@@H]2O)cc1`, the Activity in test [1] came out at 89%.

On to `CC(C)(C)OC(=O)N[C@@H]1CON(CCO)C1=O`, for which the Activity in test [1] stood at 90%. `Nc1ncnc2c1ncn2[C@@H]1O[C@H](CCNS(=O)(=O)NC(=O)OCCc2ccccc2F)[C@@H](O)[C@H]1O`: the Activity in test [1] was determined as 84%. Consider `Nc1ncnc2c1ncn2[C@@H]1O[C@H](CCNS(N)(=O)=O)[C@@H](O)[C@H]1O`, for which the Activity in test [1] was 72%. Besides, the 50% inhibitory concentration (IC50) in test [2] is 1600 µM. As to `Nc1ncnc2c1ncn2[C@@H]1O[C@H](CCNS(=O)(=O)NC(=O)OCCc2cccc(Cl)c2)[C@@H](O)[C@H]1O`, in test [1], the Activity was found to be 91%.

For `CC1CN(C(=O)OC(C)(C)C)CCN1CCOC(=O)NS(=O)(=O)NCC[C@H]1O[C@@H](n2cnc3c(N)ncnc32)[C@H](O)[C@@H]1O` (stereo partly drawn), the Activity in test [1] amounted to 95%. Take `Nc1ncnc2c1ncn2[C@@H]1O[C@H](CCNS(=O)(=O)NC(=O)OCCc2ccccc2)[C@@H](O)[C@H]1O`: in test [1], the Activity was 80%. The 50% inhibitory concentration (IC50) in test [2] is over 2500 µM. With `Nc1ncnc2c1ncn2[C@@H]1O[C@H](CCNS(=O)(=O)NC(=O)OCCc2ccccc2Cl)[C@@H](O)[C@H]1O`, in test [1], the Activity stood at 87%.

Regarding `CC1(C)O[C@@H]2[C@H](O1)[C@@H](CCN)O[C@H]2n1cnc2c(N)ncnc21`, the Activity in test [1] stood at 82%. Take `Nc1ncnc2c1ncn2[C@@H]1O[C@H](CCNS(=O)(=O)NC(=O)OCCCc2ccc(Cl)cc2)[C@@H](O)[C@H]1O`: the Activity in test [1] came out at 96%. `COc1ccc(CCCCOC(=O)NS(=O)(=O)NCC[C@H]2O[C@@H](n3cnc4c(N)ncnc43)[C@H](O)[C@@H]2O)cc1`: the Activity in test [1] worked out at 90%. With `NCC[C@H]1O[C@@H](n2cnc3c(N)ncnc32)[C@H](O)[C@@H]1O`, the Activity in test [1] turned out to be 63%. Besides, the IC50 in test [2] came to 2200 µM. On to `Cc1ccc(CCCOC(=O)NS(=O)(=O)NCC[C@H]2O[C@@H](n3cnc4c(N)ncnc43)[C@H](O)[C@@H]2O)cc1`, for which, in test [1], the Activity stood at 82%. `CC(C)(C)OC(=O)NS(=O)(=O)NCC[C@H]1O[C@@H](n2cnc3c(N)ncnc32)[C@@H]2OC(C)(C)O[C@@H]21`: the Activity in test [1] was 91%.

Turning to `Nc1ncnc2c1ncn2[C@@H]1O[C@H](CCNS(=O)(=O)NC(=O)OCCc2ccc(Cl)c(Cl)c2)[C@@H](O)[C@H]1O`, the Activity in test [1] came to 85%. Consider `CC1(C)O[C@@H]2[C@H](O1)[C@@H](CCNS(=O)(=O)NC(=O)OCCc1ccc(Cl)c(Cl)c1)O[C@H]2n1cnc2c(N)ncnc21`, for which the Activity in test [1] stood at 89%. As to `Nc1ncnc2c1ncn2[C@@H]1O[C@H](CCNS(=O)(=O)NC(=O)OCCCC2CCCC2)[C@@H](O)[C@H]1O`, the Activity in test [1] is 79%. The IC50 in test [2] is over 2500 µM.

Turning to `CC1CNCCN1CCOC(=O)NS(=O)(=O)NCC[C@H]1O[C@@H](n2cnc3c(N)ncnc32)[C@H](O)[C@@H]1O` (stereo partly drawn), the Activity in test [1] stood at 76%. In test [2], the IC50 is over 2500 µM. Take `Nc1ncnc2c1ncn2CCCCNS(=O)(=O)NC(=O)OCCc1ccc(Cl)c(Cl)c1`: the Activity in test [1] was found to be 110%. For the compound `N[C@@H]1CONC1=O` [CYCLOSERINE], the Activity in test [1] came to 35%. In test [2], the concentration for half-maximal inhibition (IC50) stood at 100 µM.
